# Source: ChEMBL document CHEMBL1201862, “PubChem BioAssay data set” (2004)
# Structures can show the parent of a compound that is named as a salt. Calls of active or inactive are those of the source.
# Tests used:
# [1] = Luminescence Cell-Based Dose Confirmation HTS to Identify Activators of 5'UTR Stem-Loop Driven Alpha-Synuclein mRNA Translation in H4 Neuroglioblastoma Cells. [Related pubchem assays: 1829 (Project Summary), 1814 (Primary HTS)]; assay type: functional
# [2] = Luminescence Cell-Based Dose Response HTS to Identify Activators of Luciferase Translation or Activity in H4 […] Cells. [Related pubchem assays: 1829 (Project Summary), 1814 (Primary HTS)]; assay type: functional
# [3] = tested on: H4; test: Luminescence Cell-Based Dose Response HTS to Identify Activators of 5'UTR Stem-Loop Driven Prion Protein mRNA Translation in H4 Neuroglioblastoma Cells. [Related pubchem assays: 1829 (Project Summary), 1814 (Primary HTS)]; assay type: functional; conditions: Homo sapiens
# [4] = ADAM10 inhibitors, peptide cleavage, dose response, biochemical, QFRET (AID 743254);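 further: ADAM10 enzyme with the DM2 quenched FRET peptide as substrate; EDANS fluorescence gain as the protease cuts the substrate; inhibitor potency against ADAM10 proteolytic activity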
# [5] = molecular target: SWI/SNF-related matrix-associated actin-dependent regulator of chromatin subfamily A member 2 (Homo sapiens, UniProt P51531); test: Luminescence-based cell-based high throughput dose response assay to identify activators of the function of SWI/SNF related, matrix associated, actin dependent regulator of chromatin, subfamily a, member 2 (SMARCA2, BRM).; assay type: functional
# Chain of SWI/SNF-related matrix-associated actin-dependent regulator of chromatin subfamily A member 2 (P51531 whole entry): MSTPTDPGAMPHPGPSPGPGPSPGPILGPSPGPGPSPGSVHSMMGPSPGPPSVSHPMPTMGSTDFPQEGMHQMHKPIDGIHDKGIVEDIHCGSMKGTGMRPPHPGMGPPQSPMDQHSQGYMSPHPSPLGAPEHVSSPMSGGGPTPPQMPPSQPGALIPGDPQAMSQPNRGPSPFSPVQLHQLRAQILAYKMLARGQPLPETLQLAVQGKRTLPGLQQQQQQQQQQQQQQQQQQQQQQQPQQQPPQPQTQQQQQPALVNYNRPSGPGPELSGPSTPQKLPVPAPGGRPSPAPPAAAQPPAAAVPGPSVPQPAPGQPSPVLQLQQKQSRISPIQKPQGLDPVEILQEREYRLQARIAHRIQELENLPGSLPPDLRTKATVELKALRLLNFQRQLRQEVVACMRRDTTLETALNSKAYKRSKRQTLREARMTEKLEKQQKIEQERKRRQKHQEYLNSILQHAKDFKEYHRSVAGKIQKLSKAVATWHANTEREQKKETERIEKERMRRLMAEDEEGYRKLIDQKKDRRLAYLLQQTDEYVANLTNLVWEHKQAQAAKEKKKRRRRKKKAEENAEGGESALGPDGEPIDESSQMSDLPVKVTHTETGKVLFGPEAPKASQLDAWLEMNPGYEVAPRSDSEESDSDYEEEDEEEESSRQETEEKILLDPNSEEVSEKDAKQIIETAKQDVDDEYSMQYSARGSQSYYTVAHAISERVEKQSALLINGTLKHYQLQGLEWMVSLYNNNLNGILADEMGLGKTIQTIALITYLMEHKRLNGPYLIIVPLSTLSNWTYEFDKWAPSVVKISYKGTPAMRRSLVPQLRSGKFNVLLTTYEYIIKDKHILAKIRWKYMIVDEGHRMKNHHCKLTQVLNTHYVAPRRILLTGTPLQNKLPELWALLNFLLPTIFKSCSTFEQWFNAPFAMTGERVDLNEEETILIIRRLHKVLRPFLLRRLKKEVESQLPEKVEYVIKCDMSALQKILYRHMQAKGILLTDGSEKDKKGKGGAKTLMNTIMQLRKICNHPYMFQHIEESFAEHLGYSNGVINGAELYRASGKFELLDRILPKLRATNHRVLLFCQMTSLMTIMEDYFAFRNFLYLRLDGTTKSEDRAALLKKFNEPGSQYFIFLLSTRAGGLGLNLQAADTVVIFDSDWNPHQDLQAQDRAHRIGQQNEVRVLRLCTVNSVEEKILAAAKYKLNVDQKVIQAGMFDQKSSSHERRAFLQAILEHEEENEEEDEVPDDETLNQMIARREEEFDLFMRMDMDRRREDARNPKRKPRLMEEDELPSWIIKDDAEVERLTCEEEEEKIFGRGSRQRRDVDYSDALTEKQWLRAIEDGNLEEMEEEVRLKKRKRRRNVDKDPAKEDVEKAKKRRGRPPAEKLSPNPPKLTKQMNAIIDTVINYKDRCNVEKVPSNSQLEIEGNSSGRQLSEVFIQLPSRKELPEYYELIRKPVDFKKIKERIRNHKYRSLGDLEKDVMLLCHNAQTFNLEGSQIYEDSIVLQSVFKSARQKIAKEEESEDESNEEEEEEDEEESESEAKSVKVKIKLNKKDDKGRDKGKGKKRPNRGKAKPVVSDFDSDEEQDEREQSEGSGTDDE
# [6] = Counterscreen for activators of the function of SWI/SNF related, matrix associated, actin dependent regulator of chromatin, subfamily a, member 2 (SMARCA2, BRM): Luminescence-based cell-based high throughput dose response assay to identify non-selective compounds using the VP16 reporter assay.; assay type: functional
# [7] = molecular target: Fatty acid synthase (Homo sapiens, UniProt P49327); test: FAS thioesterase domain inhibitors, SAR follow-up, biochemical, endpoint fluorescence intensity, powder samples (AID 652164); assay type: functional
# Chain of Fatty acid synthase (P49327 whole entry, the tested form may be a part): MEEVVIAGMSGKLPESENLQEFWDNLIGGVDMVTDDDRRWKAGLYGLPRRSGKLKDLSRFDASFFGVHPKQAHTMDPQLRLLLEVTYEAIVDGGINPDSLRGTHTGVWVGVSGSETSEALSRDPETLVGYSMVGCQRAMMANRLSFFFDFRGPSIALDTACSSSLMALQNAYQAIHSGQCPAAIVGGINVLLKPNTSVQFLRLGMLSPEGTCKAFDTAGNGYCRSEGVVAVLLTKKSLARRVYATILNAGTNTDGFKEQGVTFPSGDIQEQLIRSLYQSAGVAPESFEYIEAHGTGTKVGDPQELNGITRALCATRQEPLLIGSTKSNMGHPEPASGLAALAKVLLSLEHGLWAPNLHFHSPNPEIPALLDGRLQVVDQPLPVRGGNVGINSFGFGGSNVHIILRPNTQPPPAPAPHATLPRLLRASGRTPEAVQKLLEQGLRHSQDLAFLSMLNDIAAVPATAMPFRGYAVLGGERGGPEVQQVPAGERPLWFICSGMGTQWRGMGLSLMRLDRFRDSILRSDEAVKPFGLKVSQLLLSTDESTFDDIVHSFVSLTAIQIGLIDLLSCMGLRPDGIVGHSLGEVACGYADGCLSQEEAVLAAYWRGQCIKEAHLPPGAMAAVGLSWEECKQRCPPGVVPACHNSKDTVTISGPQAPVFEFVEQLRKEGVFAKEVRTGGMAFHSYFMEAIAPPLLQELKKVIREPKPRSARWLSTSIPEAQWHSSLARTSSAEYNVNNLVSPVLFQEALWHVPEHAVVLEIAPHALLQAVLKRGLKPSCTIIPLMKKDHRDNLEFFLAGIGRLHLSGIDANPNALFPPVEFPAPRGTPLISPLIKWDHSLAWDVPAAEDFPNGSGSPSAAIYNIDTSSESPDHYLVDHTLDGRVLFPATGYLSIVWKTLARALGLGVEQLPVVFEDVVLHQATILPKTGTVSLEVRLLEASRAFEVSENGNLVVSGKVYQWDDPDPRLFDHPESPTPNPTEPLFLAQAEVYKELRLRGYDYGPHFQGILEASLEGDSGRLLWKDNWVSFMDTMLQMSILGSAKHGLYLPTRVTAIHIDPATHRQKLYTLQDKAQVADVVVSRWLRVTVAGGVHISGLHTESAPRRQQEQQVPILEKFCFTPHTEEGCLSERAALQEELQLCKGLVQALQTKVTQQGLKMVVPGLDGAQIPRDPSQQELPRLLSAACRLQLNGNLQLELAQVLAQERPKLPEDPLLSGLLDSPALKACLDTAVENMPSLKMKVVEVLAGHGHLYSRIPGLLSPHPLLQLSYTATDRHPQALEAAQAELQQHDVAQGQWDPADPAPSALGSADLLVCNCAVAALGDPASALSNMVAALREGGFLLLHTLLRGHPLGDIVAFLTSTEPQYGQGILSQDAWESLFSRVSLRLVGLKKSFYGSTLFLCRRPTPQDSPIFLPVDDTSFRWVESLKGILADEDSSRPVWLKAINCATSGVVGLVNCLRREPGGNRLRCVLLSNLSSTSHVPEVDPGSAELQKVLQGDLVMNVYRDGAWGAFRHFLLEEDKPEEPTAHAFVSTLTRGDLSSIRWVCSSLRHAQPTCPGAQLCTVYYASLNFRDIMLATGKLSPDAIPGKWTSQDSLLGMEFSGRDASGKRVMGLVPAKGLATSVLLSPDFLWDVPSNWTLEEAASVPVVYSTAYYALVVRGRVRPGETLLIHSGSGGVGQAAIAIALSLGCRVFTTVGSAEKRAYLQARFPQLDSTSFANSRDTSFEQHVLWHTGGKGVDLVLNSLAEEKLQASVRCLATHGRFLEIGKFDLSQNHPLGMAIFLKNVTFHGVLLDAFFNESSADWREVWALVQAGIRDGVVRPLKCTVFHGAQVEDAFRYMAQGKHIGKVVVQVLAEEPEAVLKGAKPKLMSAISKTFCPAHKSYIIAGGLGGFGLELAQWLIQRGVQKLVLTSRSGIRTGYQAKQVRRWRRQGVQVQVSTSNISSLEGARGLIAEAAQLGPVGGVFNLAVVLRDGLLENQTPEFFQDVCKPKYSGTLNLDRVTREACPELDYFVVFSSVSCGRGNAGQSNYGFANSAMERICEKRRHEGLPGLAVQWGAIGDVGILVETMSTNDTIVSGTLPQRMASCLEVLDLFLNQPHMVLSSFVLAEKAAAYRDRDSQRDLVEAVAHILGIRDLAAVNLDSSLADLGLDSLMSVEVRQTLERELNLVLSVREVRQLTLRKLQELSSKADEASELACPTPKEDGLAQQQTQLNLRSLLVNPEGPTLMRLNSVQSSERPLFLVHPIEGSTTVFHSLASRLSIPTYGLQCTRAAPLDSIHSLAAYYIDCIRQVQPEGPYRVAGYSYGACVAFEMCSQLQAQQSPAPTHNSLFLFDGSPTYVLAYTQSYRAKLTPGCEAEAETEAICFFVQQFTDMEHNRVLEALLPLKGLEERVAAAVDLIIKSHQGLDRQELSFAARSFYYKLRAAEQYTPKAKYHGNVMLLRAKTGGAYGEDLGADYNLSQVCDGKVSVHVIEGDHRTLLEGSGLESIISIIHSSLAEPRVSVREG
# [8] = lymphoblastoid cell cytotoxicity, dose response, cytotoxicity control, plate reader, dry powder, set 2 (AID 624367); assay type: functional
# [9] = molecular target: Peroxisome proliferator-activated receptor gamma/Nuclear receptor coactivator 1 (Homo sapiens, UniProt P37231); test: (§1) TR-FRET dose response biochemical High Throughput Screening assay for agonists of the steroid receptor coactivator 1 (SRC-1) recruitment by the peroxisome proliferator-activated receptor gamma (PPAR gamma): non-selective agonists. [Related pubchem assays (depositor defined):AID1300, AID1808, AID504735, AID631]; assay type: protein assay
# [10] = molecular target: Peroxisome proliferator-activated receptor gamma/Nuclear receptor coactivator 3 (Homo sapiens, UniProt P37231); test: as §1, with “3 (SRC-3)” for “1 (SRC-1)”, “assays: 1301 (Confirmation screen.), 1048 (Primary screen.)]” for “assays (depositor defined):AID1300, AID1808, AID504735, AID631]”; assay type: functional
# [11] = molecular target: Peroxisome proliferator-activated receptor gamma/Nuclear receptor coactivator 2 (Homo sapiens, UniProt P37231); test: TR-FRET dose response biochemical High Throughput Screening assay for agonists of the steroid receptor coactivator 2 (SRC-2) recruitment by the peroxisome proliferator-activated receptor gamma (PPAR gamma): non-selective agonists. [Related pubchem assays: 1297, 1032 ]; assay type: functional
# [12] = molecular target: Major prion protein (Homo sapiens, UniProt P04156); assay type: functional, cell-based
# [13] = cells
# [14] = HEK293T cell cytotoxicity, dose response, cytotoxicity control for HIV Vif inhibitor project, cherry-picks (AID 652208); assay type: functional, cell-based
# [15] = molecular target: T1, Cytochrome P450 1A2 (Homo sapiens, UniProt P05177);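 further: PubChem cytochrome P450 panel assay, CYP1A2 panel member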
# T1 sequence (P05177 whole entry): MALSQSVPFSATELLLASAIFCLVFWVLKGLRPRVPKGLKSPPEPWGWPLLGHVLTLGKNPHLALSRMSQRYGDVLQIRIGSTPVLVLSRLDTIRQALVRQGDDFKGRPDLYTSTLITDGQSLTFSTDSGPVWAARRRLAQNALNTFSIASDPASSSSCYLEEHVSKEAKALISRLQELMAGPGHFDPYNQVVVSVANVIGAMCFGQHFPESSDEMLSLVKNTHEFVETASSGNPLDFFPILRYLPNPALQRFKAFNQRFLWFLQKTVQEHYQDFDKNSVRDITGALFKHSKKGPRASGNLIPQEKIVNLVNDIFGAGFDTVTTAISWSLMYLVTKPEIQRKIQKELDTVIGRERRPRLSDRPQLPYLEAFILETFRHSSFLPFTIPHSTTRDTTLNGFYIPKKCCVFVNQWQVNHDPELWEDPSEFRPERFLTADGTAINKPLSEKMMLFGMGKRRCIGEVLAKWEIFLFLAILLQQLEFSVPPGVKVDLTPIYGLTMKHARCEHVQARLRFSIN
# [16] = molecular target: Cytochrome P450 3A4 (Homo sapiens, UniProt P08684);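 further: CYP3A4 tested as one member of a cytochrome P450 panel screen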
# [17] = molecular target: T2, Heat shock factor protein 1 (Mus musculus, UniProt P38532); test: inhibition of MG132-induced HSE-luciferase signal, confirmation, cell-based, NIH3T3, luminescence, dose retest (AID 2382); assay type: functional;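 further: NIH3T3 fibroblasts with HSF1-driven luciferase reporter stressed by proteasome inhibitor MG132; luminescence from HSF1-driven luciferase expression after 8 hours of MG132 stress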
# T2 sequence (P38532 whole entry): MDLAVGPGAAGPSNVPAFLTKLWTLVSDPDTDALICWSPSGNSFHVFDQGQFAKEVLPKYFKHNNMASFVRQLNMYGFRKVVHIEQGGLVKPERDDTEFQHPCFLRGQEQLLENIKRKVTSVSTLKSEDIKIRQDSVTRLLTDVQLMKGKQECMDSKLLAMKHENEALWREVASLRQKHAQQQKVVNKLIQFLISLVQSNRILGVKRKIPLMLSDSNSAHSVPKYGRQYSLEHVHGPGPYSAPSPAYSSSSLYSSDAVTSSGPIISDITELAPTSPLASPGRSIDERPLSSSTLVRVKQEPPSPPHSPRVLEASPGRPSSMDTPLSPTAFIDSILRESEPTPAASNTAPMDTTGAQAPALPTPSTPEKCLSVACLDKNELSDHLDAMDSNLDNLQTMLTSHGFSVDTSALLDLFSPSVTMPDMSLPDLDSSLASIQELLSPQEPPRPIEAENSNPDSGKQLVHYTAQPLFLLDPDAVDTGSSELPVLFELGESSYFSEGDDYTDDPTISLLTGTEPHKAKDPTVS
# [18] = molecular target: Large T antigen (Simian virus 40, UniProt P03070); assay type: functional, Betapolyomavirus macacae;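 further: Confirmatory-stage PubChem screen for compounds that inhibit SV40 T antigen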
# [19] = inhibitors of intracellular T. cruzi replication, confirmation, NIH3T3 host cells, beta-gal luminescence (AID 2044); assay type: functional, cell-based;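 further: intracellular parasites grown in NIH/3T3 mouse fibroblasts as host cells; luminescent beta-galactosidase reporter signal from transgenic T. cruzi replicating inside host cells; inhibitors lower the luminescence signal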
# [20] = cytotoxicity toward NIH3T3 fibroblasts, dose response, counter-screen, cell-based, ATP luminescence, mouse fibroblasts (AID 2010); assay type: functional;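 further: cells exposed to compound for about 90 hours before reading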
# [21] = molecular target: Glucose-6-phosphate 1-dehydrogenase (Homo sapiens, UniProt P11413); test: human G6PD enzyme inhibitors, dose response, selectivity assay for P. falciparum G6PD inhibitor project, biochemical, fluorescence (AID 504792); assay type: functional
# [22] = tested on: Vero; test: cells; assay type: functional; conditions: Chlorocebus sabaeus
# [23] = molecular target: T3, Mitochondrial peptide methionine sulfoxide reductase (Bos taurus, UniProt P54149); test: Absorbance-based biochemical high throughput dose response assay for activators of Methionine sulfoxide reductase A (MsrA).; assay type: functional
# T3 sequence (P54149 whole entry): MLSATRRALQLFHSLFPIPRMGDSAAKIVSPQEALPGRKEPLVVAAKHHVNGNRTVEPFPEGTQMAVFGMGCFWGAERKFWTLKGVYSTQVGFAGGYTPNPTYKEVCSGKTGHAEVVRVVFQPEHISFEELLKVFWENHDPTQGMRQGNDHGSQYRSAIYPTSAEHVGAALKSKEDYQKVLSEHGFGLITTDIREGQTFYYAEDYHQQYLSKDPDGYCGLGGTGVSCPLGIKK
# [24] = P. falciparum late gametocyte killing, dose response, luminescence (AID 1117278); assay type: functional, cell-based;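 further: gametocytes exposed to compound for 24 hours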
# [25] = Jurkat T cell cytotoxicity, dose response, cytotoxicity control for P. falciparum gametocyte viability project, luminescence (AID 1117277); assay type: functional, cell-based;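 further: potency reflects loss of cellular ATP meaning fewer viable cells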
# [26] = cells; assay type: functional, cell-based
# [27] = molecular target: T4, Nuclear receptor subfamily 0 group B member 1 (Homo sapiens, UniProt P51843); assay type: functional, cell-based;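 further: HEK293T cells transfected with SF-1 and DAX-1 plus StAR promoter luciferase reporter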
# T4 sequence (P51843 whole entry): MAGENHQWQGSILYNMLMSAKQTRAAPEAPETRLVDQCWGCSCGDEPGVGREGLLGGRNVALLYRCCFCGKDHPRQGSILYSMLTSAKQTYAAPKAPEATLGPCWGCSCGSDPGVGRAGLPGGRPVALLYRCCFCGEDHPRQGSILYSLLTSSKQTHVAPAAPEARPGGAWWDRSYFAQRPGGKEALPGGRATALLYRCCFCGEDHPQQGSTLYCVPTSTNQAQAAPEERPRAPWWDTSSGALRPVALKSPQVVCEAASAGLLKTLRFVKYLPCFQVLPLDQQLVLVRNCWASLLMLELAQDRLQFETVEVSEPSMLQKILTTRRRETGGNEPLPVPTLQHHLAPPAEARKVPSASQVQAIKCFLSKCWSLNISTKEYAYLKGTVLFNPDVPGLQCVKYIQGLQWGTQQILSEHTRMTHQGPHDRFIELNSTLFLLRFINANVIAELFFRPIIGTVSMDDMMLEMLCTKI
# [28] = tested on: INS1; test: beta cell apoptosis inhibitors, cytokine rescue, dose response, luminescence, retest (AID 449756); assay type: functional, cell-based; conditions: Rattus norvegicus;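 further: cell death triggered by IL-1 beta plus TNF-alpha plus IFN-gamma mixture; protective hits raise ATP signal compared with cytokine alone wells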
# [29] = molecular target: T5, COUP transcription factor 2 (Homo sapiens, UniProt P24468); test: Luminescence-based cell-based high throughput dose response assay to identify inhibitors of COUP-TFII (NR2F2).; assay type: functional;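 further: HEK293 cells transiently cotransfected with COUP-TFII expression vector and reporter; luciferase reporter luminescence driven by COUP-TFII from the pX2-168 reporter plasmid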
# T5 sequence (P24468 whole entry): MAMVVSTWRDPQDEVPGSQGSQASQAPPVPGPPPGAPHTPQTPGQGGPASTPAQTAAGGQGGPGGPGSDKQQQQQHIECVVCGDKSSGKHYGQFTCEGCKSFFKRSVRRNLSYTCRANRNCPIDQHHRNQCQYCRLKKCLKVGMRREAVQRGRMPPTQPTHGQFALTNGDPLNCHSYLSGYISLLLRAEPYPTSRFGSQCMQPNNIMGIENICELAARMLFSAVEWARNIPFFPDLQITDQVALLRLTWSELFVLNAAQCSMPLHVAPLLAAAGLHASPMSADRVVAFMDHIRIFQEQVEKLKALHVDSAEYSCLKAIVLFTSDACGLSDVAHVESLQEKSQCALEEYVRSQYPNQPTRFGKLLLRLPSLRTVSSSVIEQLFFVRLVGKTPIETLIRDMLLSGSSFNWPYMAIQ
# [30] = molecular target: Mu-type opioid receptor (Homo sapiens, UniProt P35372); assay type: functional, cell-based;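 further: U2OS cells with beta-arrestin recruitment to OPRM1 by beta-gal complementation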
# Chain of Mu-type opioid receptor (P35372 whole entry): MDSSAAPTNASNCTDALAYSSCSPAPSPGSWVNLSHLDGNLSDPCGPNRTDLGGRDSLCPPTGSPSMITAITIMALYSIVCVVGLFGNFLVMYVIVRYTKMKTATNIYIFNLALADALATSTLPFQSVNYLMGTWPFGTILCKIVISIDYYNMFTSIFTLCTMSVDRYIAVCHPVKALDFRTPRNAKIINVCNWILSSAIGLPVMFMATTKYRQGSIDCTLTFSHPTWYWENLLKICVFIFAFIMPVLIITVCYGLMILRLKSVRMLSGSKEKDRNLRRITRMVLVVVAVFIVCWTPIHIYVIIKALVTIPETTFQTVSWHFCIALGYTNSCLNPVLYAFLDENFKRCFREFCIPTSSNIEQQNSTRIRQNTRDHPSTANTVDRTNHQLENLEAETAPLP
# [31] = molecular target: 5-hydroxytryptamine receptor 2A (Mus musculus, UniProt P35363); assay type: functional, cell-based;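 further: CHO-K1 cells with tagged receptor and beta-arrestin; agonist potency measured as compound-induced activation of the receptor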
# Chain of 5-hydroxytryptamine receptor 2A (P35363 whole entry): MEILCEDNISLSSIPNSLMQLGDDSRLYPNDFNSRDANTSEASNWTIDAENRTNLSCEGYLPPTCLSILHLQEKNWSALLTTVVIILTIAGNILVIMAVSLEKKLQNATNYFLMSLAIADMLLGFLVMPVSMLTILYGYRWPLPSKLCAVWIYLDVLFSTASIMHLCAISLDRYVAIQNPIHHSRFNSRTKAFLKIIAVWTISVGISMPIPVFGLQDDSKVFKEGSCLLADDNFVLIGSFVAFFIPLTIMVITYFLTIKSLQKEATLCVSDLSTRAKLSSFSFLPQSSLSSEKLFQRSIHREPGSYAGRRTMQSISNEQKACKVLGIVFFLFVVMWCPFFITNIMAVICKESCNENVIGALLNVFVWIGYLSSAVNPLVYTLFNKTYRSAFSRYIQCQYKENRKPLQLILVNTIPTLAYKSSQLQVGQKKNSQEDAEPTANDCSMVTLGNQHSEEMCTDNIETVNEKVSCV
smiles,measurement,setting,value
CCc1ccc(-c2cn(C3CCCCC3)c(S)n2)cc1,EC50,[1],67.1 µM (active)
same,EC50,[2],> 120 µM (not active)
same,EC50,[3],> 60 µM (not active)
same,IC50,[4],> 69.5 µM (inactive)
O=C(COC(=O)c1nc(Cl)c(Cl)c(Cl)c1Cl)c1ccc[nH]1,EC50,[5],> 91.1 µM (inactive)
same,EC50,[6],> 91.1 µM (inactive)
CN(C)S(=O)(=O)c1ccc(-c2csc(NC(=O)C3CC3)n2)cc1,IC50,[7],1.23 µM (active)
CN(C)S(=O)(=O)c1ccc(-c2csc(NC(=O)C3CCCC3)n2)cc1,IC50,[7],1.55 µM (active)
CN1C(=O)c2cc(NC(=O)c3ccc(C(F)(F)F)cc3)ccc2OC[C@H]2O[C@@H](CC(=O)NC3Cc4ccccc4C3)CC[C@H]21,AbsAC35,[8],40.05 µM
C#CCn1/c(=N/C(=O)c2ccc(Br)s2)sc2cccc(OC)c21,EC50,[9],10.3 µM (inactive)
same,EC50,[10],18.1 µM (not active)
same,EC50,[11],10.6 µM (not active)
same,IC50,[12],2.6 µM (active)
same,IC50,[13],48.6 µM (inactive)
Cc1nn(Cc2c(Cl)cccc2Cl)c(C)c1NC(=O)c1cnn2c(C(F)F)cc(-c3ccccc3)nc12,AC50,[14],26 µM (active)
same,AC50,[15],31.6 µM (inconclusive)
same,AC50,[16],inconclusive
COc1nc(-c2ccccc2)c2cc(Br)ccc2n1,EC50,[17],> 195 µM (not active)
same,IC50,[12],5.53 µM (active)
same,IC50,[13],> 138 µM (inactive)
O=c1[nH]sc2cc(F)ccc12,IC50,[18],33.3 µM (active)
same,EC50,[19],0.202 µM (active)
same,EC50,[20],16.1 µM (active)
same,IC50,[21],> 80 µM (inactive)
same,CC50,[22],> 25 µM (active)
same,EC50,[23],> 104 µM (inactive)
same,EC50,[5],> 91.1 µM (inactive)
same,EC50,[6],> 91.1 µM (inactive)
same,IC50,[24],> 36.3 µM (inactive)
same,IC50,[25],22.2 µM (inactive)
COc1ccc2oc(C(=O)NCC3CCCO3)c(C)c2c1 (stereo unspecified),IC50,[26],> 67.6 µM (inactive)
same,IC50,[27],> 67.6 µM (inactive)
CC(C)OCCCNc1[nH]cnc2c3cc(F)ccc3nc1-2,AC50,[28],1.63 µM (active)
same,AC50,[14],> 52 µM (inactive)
same,IC50,[29],6.62 µM (active)
CCCN(CCc1ccccc1)C1CCc2c(O)cccc2C1 (stereo unspecified),EC50,[30],92.6 µM (inactive)
same,EC50,[31],0.0038 µM (active)
CNC[C@H](O)c1cccc(O)c1 [PHENYLEPHRINE HYDROCHLORIDE],EC50,[30],92.4 µM (inactive)
same,EC50,[31],19.3 µM (inactive)
Cc1noc(C)c1-c1ccc(C(=O)Nc2ccccc2)c2occc12,IC50,[26],> 67.5 µM (inactive)
same,IC50,[27],> 2.5 µM (active)
